Experiments:
Format in all cases: in vivo
[1] = test system: barnyardgrass (Echinochloa crus-galli); test: Test G Post-Emergence Protocol; settings: Echinochloa crus-galli, post-emergence, 312 h, read-out: Barnyardgrass damage rating; for pest or weed control at 15.625 g/ha: 15.625 g ai/ha, evaluated after 13 days (100=total damage to plant; 0=no damage to plant); for pest or weed control at 62.5 g/ha: 62.5 g ai/ha; for pest or weed control at 62.5 g/ha / pest or weed control at 250 g/ha: evaluated after 13 days, 100=total damage to plant, 0=no damage to plant; for pest or weed control at 250 g/ha: 250 g ai/ha
Method in brief: (§1)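 Seedlings grown 8 days in soil in a glasshouse (24/16 °C day/night, 14 h light, 65% humidity) were sprayed post-emergence with compound in acetone/water 50:50 plus 0.5% Tween 20 at 15.625, 62.5 or 250 g/ha. Damage was scored after 13 days on a 0–100 scale (100 = total damage).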

[2] = test system: ivy-leaved morning glory (Ipomoea hederacea); test: Test G Post-Emergence Protocol; settings: Ipomoea, post-emergence, 312 h, read-out: Morningglory, Ivy-leaved damage rating; for pest or weed control at 15.625 g/ha: 15.625 g ai/ha, evaluated after 13 days (100=total damage to plant; 0=no damage to plant); for pest or weed control at 62.5 g/ha: 62.5 g ai/ha; for pest or weed control at 62.5 g/ha / pest or weed control at 250 g/ha: evaluated after 13 days, 100=total damage to plant, 0=no damage to plant; for pest or weed control at 250 g/ha: 250 g ai/ha
Method in brief: as §1

[3] = test system: velvetleaf (Abutilon theophrasti); test: Test G Post-Emergence Protocol; settings: Abutilon theophrasti, post-emergence, 312 h, read-out: Velvetleaf damage rating; for pest or weed control at 15.625 g/ha: 15.625 g ai/ha, evaluated after 13 days (100=total damage to plant; 0=no damage to plant); for pest or weed control at 62.5 g/ha: 62.5 g ai/ha; for pest or weed control at 62.5 g/ha / pest or weed control at 250 g/ha: evaluated after 13 days, 100=total damage to plant, 0=no damage to plant; for pest or weed control at 250 g/ha: 250 g ai/ha
Method in brief: as §1

corn (Zea mays) [4] = test: Test G Post-Emergence Protocol; settings: Zea mays, post-emergence, 312 h, read-out: Corn damage rating; for plant injury at 15.625 g/ha: 15.625 g ai/ha, evaluated after 13 days (100=total damage to plant; 0=no damage to plant); for plant injury at 62.5 g/ha: 62.5 g ai/ha; for plant injury at 62.5 g/ha / plant injury at 250 g/ha: evaluated after 13 days, 100=total damage to plant, 0=no damage to plant; for plant injury at 250 g/ha: 250 g ai/ha
Method in brief: as §1

[5] = test system: redroot pigweed (Amaranthus retroflexus); test: Test G Post-Emergence Protocol; settings: Amaranthus retroflexus, post-emergence, 312 h, read-out: Pigweed, Redroot damage rating; for pest or weed control at 15.625 g/ha: 15.625 g ai/ha, evaluated after 13 days (100=total damage to plant; 0=no damage to plant); for pest or weed control at 62.5 g/ha: 62.5 g ai/ha; for pest or weed control at 62.5 g/ha / pest or weed control at 250 g/ha: evaluated after 13 days, 100=total damage to plant, 0=no damage to plant; for pest or weed control at 250 g/ha: 250 g ai/ha
Method in brief: as §1

[6] = test system: giant foxtail (Setaria faberi); test: Test G Post-Emergence Protocol; settings: Setaria faberi, post-emergence, 312 h, read-out: Foxtail, Giant damage rating; for pest or weed control at 15.625 g/ha: 15.625 g ai/ha, evaluated after 13 days (100=total damage to plant; 0=no damage to plant); for pest or weed control at 62.5 g/ha: 62.5 g ai/ha; for pest or weed control at 62.5 g/ha / pest or weed control at 250 g/ha: evaluated after 13 days, 100=total damage to plant, 0=no damage to plant; for pest or weed control at 250 g/ha: 250 g ai/ha
Method in brief: as §1

[7] = test system: barnyardgrass (Echinochloa crus-galli); test: Test G Pre-Emergence Protocol; settings: Echinochloa crus-galli, pre-emergence, 312 h, evaluated after 13 days; for pest or weed control at 15.625 g/ha: 15.625 g ai/ha; for pest or weed control at 15.625 g/ha / pest or weed control at 250 g/ha: read-out: Barnyardgrass damage rating (100=total damage to plant; 0=no damage to plant); for pest or weed control at 62.5 g/ha: 62.5 g ai/ha, 100=total damage to plant, 0=no damage to plant, read-out: Barnyardgrass damage rating; for pest or weed control at 250 g/ha: 250 g ai/ha
Method in brief: (§2)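 Herbicidal effect was rated 13 days post-application on a scale where 100 equals total damage. Spraying took place the day after sowing, using 15.625, 62.5 or 250 g/ha of compound in a 50:50 acetone/water solution with 0.5% Tween 20.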

[8] = test system: ivy-leaved morning glory (Ipomoea hederacea); test: Test G Pre-Emergence Protocol; settings: evaluated after 13 days; for pest or weed control at 15.625 g/ha: 15.625 g ai/ha; for pest or weed control at 62.5 g/ha: 62.5 g ai/ha, 100=total damage to plant, 0=no damage to plant, read-out: Morningglory, Ivy-leaved damage rating
Method in brief: as §2

[9] = test system: velvetleaf (Abutilon theophrasti); test: Test G Pre-Emergence Protocol; settings: evaluated after 13 days; for pest or weed control at 62.5 g/ha: 62.5 g ai/ha, 100=total damage to plant, 0=no damage to plant, read-out: Velvetleaf damage rating
Method in brief: as §2

corn (Zea mays) [10] = test: Test G Pre-Emergence Protocol; settings: evaluated after 13 days; for plant injury at 62.5 g/ha: 62.5 g ai/ha, 100=total damage to plant, 0=no damage to plant, read-out: Corn damage rating
Method in brief: as §2

[11] = test system: redroot pigweed (Amaranthus retroflexus); test: Test G Pre-Emergence Protocol; settings: evaluated after 13 days; for pest or weed control at 62.5 g/ha: 62.5 g ai/ha, 100=total damage to plant, 0=no damage to plant, read-out: Pigweed, Redroot damage rating
Method in brief: as §2

[12] = test system: giant foxtail (Setaria faberi); test: Test G Pre-Emergence Protocol; settings: Setaria faberi, pre-emergence, 312 h, evaluated after 13 days; for pest or weed control at 15.625 g/ha: 15.625 g ai/ha; for pest or weed control at 15.625 g/ha / pest or weed control at 250 g/ha: read-out: Foxtail, Giant damage rating (100=total damage to plant; 0=no damage to plant); for pest or weed control at 62.5 g/ha: 62.5 g ai/ha, 100=total damage to plant, 0=no damage to plant, read-out: Foxtail, Giant damage rating; for pest or weed control at 250 g/ha: 250 g ai/ha
Method in brief: as §2

[13] = Ipomoea, pre-emergence, 312 h, read-out: Morningglory, Ivy-leaved damage rating (100=total damage to plant; 0=no damage to plant)
[14] = Abutilon theophrasti, pre-emergence, 312 h
[15] = Amaranthus retroflexus, pre-emergence, 312 h

| Compound | pest or weed control at 15.625 g/ha [1] | pest or weed control at 62.5 g/ha [1] | pest or weed control at 250 g/ha [1] | pest or weed control at 15.625 g/ha [2] | pest or weed control at 62.5 g/ha [2] | pest or weed control at 250 g/ha [2] | pest or weed control at 15.625 g/ha [3] | pest or weed control at 62.5 g/ha [3] | pest or weed control at 250 g/ha [3] | plant injury at 15.625 g/ha (corn (Zea mays) [4]) | plant injury at 62.5 g/ha (corn (Zea mays) [4]) | plant injury at 250 g/ha (corn (Zea mays) [4]) | pest or weed control at 15.625 g/ha [5] | pest or weed control at 62.5 g/ha [5] | pest or weed control at 250 g/ha [5] | pest or weed control at 15.625 g/ha [6] | pest or weed control at 62.5 g/ha [6] | pest or weed control at 250 g/ha [6] | pest or weed control at 15.625 g/ha [7] | pest or weed control at 62.5 g/ha [7] | other results |
| --- | --- | --- | --- | --- | --- | --- | --- | --- | --- | --- | --- | --- | --- | --- | --- | --- | --- | --- | --- | --- | --- |
| CCOc1cc(C2CN(C)C(=O)C2C(=O)Nc2cccc(F)c2F)ccc1Cl (stereo not drawn) [Compound 1686] | 30% | 70% | 80% | 20% | 20% | 70% | 30% | 20% | 40% | 0% | 10% | 60% | 30% | 20% | 40% | 60% | 70% | 80% | 40% | 70% | pest or weed control at 250 g/ha [7]: 70%; pest or weed control at 15.625 g/ha [8, 13]: 0%; pest or weed control at 62.5 g/ha ([8]; Ipomoea, pre-emergence, 312 h): 20%; pest or weed control at 250 g/ha ([8]; Ipomoea, pre-emergence, 312 h, 250 g ai/ha, read-out: Morningglory, Ivy-leaved damage rating (100=total damage to plant; 0=no damage to plant)): 60%; pest or weed control at 15.625 g/ha ([9]; Abutilon theophrasti, pre-emergence, 312 h, 15.625 g ai/ha, read-out: Velvetleaf damage rating (100=total damage to plant; 0=no damage to plant)): 0%; pest or weed control at 62.5 g/ha [9, 14]: 0%; pest or weed control at 250 g/ha ([9]; Abutilon theophrasti, pre-emergence, 312 h, 250 g ai/ha, read-out: Velvetleaf damage rating (100=total damage to plant; 0=no damage to plant)): 40%; plant injury at 15.625 g/ha (corn (Zea mays) [10]; Zea mays, pre-emergence, 312 h, 15.625 g ai/ha, read-out: Corn damage rating (100=total damage to plant; 0=no damage to plant)): 10%; plant injury at 62.5 g/ha (corn (Zea mays) [10]; Zea mays, pre-emergence, 312 h): 20%; plant injury at 250 g/ha (corn (Zea mays) [10]; Zea mays, pre-emergence, 312 h, 250 g ai/ha, read-out: Corn damage rating (100=total damage to plant; 0=no damage to plant)): 50%; pest or weed control at 15.625 g/ha ([11]; Amaranthus retroflexus, pre-emergence, 312 h, 15.625 g ai/ha, read-out: Pigweed, Redroot damage rating (100=total damage to plant; 0=no damage to plant)): 0%; pest or weed control at 62.5 g/ha [11, 15]: 0%; pest or weed control at 250 g/ha ([11]; Amaranthus retroflexus, pre-emergence, 312 h, 250 g ai/ha, read-out: Pigweed, Redroot damage rating (100=total damage to plant; 0=no damage to plant)): 60%; pest or weed control at 15.625 g/ha [12]: 60%; pest or weed control at 62.5 g/ha [12]: 70%; pest or weed control at 250 g/ha [12]: 90% |
| COc1c(Cl)ccc([C@H]2CN(C)C(=O)[C@@H]2C(=O)Nc2cccc(F)c2F)c1F [Compound 1773] | 80% | 80% | 80% | 20% | 10% | 60% | 0% | 20% | 40% | 70% | 80% | 80% | 20% | 20% | 40% | 80% | 80% | 80% | 90% | 90% | pest or weed control at 250 g/ha [7]: 90%; Morningglory, Ivy-leaved damage rating (100=total damage to plant; 0=no damage to plant) ([8]; 250 g ai/ha): 80; pest or weed control at 15.625 g/ha [8, 13]: 0%; pest or weed control at 62.5 g/ha ([8]; Ipomoea, pre-emergence, 312 h): 60%; Velvetleaf damage rating (100=total damage to plant; 0=no damage to plant) ([9]; 15.625 g ai/ha): 10; Velvetleaf damage rating (100=total damage to plant; 0=no damage to plant) ([9]; 250 g ai/ha): 60; pest or weed control at 62.5 g/ha [9, 14]: 30%; Corn damage rating (100=total damage to plant; 0=no damage to plant) (corn (Zea mays) [10]; 15.625 g ai/ha): 70; Corn damage rating (100=total damage to plant; 0=no damage to plant) (corn (Zea mays) [10]; 250 g ai/ha): 80; plant injury at 62.5 g/ha (corn (Zea mays) [10]; Zea mays, pre-emergence, 312 h): 80%; Pigweed, Redroot damage rating (100=total damage to plant; 0=no damage to plant) ([11]; 15.625 g ai/ha): 20; Pigweed, Redroot damage rating (100=total damage to plant; 0=no damage to plant) ([11]; 250 g ai/ha): 70; pest or weed control at 62.5 g/ha [11, 15]: 20%; pest or weed control at 15.625 g/ha [12]: 90%; pest or weed control at 62.5 g/ha [12]: 90%; pest or weed control at 250 g/ha [12]: 90% |
